Results as given in patent publication US12077503B2, “Substituted cyclic amides and their use as herbicides” (FMC CORPORATION, priority 2015, dated 2024).

Key:
Experiment in all cases: Test C preemergence
Format in all cases: in vivo
[1] = tested on: crabgrass, large (large crabgrass, Digitaria sanguinalis); conditions: for Plant response rating, Crabgrass, Large: scale 0 to 100, 0 no effect, 100 complete control
Method in brief: (§1)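 Seeds in loam-sand soil treated preemergence, or plants in peat-based medium sprayed postemergence at 2–18 cm (1- to 4-leaf stage), with compound in a non-phytotoxic solvent mixture containing surfactant. Greenhouse-held 13–15 d, then visually rated against controls on a 0–100 scale (0 = no effect, 100 = complete control); dash = not tested.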

[2] = tested on: velvetleaf (Abutilon theophrasti); conditions: for Plant response rating, Velvetleaf: scale 0 to 100, 0 no effect, 100 complete control
Method in brief: as §1

[3] = tested on: blackgrass (Alopecurus myosuroides); conditions: for Plant response rating, Blackgrass: scale 0 to 100, 0 no effect, 100 complete control
Method in brief: as §1

[4] = tested on: ragweed (common ragweed, Ambrosia elatior); conditions: for Plant response rating, Ragweed: scale 0 to 100, 0 no effect, 100 complete control
Method in brief: as §1

[5] = tested on: morningglory (Ipomoea coccinea); conditions: for Plant response rating, Morningglory: scale 0 to 100, 0 no effect, 100 complete control
Method in brief: as §1

[6] = tested on: johnsongrass (Sorghum halepense); conditions: for Plant response rating, Johnsongrass: scale 0 to 100, 0 no effect, 100 complete control
Method in brief: as §1

[7] = tested on: ryegrass, Italian (Italian ryegrass, Lolium multiflorum); conditions: for Plant response rating, Ryegrass, Italian: scale 0 to 100, 0 no effect, 100 complete control
Method in brief: as §1

[8] = tested on: waterhemp (common waterhemp, Amaranthus rudis); conditions: for Plant response rating, Waterhemp: scale 0 to 100, 0 no effect, 100 complete control
Method in brief: as §1

[9] = tested on: oilseed rape (Brassica napus); conditions: for Plant response rating, Oilseed Rape: scale 0 to 100, 0 no effect, 100 complete control
Method in brief: as §1

soybean (Glycine max) = conditions: for Plant response rating, Soybean: scale 0 to 100, 0 no effect, 100 complete control
Method in brief: as §1

[10] = tested on: nutsedge, yellow (yellow nutsedge, Cyperus esculentus); conditions: for Plant response rating, Nutsedge, Yellow: scale 0 to 100, 0 no effect, 100 complete control
Method in brief: as §1

[11] = tested on: pigweed (Amaranthus retroflexus); conditions: for Plant response rating, Pigweed: scale 0 to 100, 0 no effect, 100 complete control
Method in brief: as §1

[12] = tested on: barnyardgrass (Echinochloa crus-galli); conditions: for Plant response rating, Barnyardgrass: scale 0 to 100, 0 no effect, 100 complete control
Method in brief: as §1

[13] = tested on: foxtail, giant (giant foxtail, Setaria faberii); conditions: for Plant response rating, Foxtail, Giant: scale 0 to 100, 0 no effect, 100 complete control
Method in brief: as §1

[14] = tested on: wheat (winter wheat, Triticum aestivum); conditions: for Plant response rating, Wheat: scale 0 to 100, 0 no effect, 100 complete control
Method in brief: as §1

corn (Zea mays) = conditions: for Plant response rating, Corn: scale 0 to 100, 0 no effect, 100 complete control
Method in brief: as §1

[15] = tested on: Galium (catchweed bedstraw, Galium aparine); conditions: for Plant response rating, Galium: scale 0 to 100, 0 no effect, 100 complete control
Method in brief: as §1

[16] = 31 g ai/ha, 0 is no effect, 100 is complete control

Compound: O=C1NCC(c2ccc3c(c2)OC(F)(F)O3)C1C(=O)Nc1cccc(F)c1F (centres unmarked) [Compound 635]
- Plant response rating (scale of 0 to 100), Crabgrass, Large [1, 16]: 90
- Plant response rating, Crabgrass, Large ([1]; 62 g ai/ha): 95
- Plant response rating, Crabgrass, Large ([1]; 125 g ai/ha): 95
- Plant response rating, Crabgrass, Large ([1]; 250 g ai/ha): 98
- Plant response rating (scale of 0 to 100), Velvetleaf [2, 16]: 0
- Plant response rating, Velvetleaf ([2]; 62 g ai/ha): 10
- Plant response rating, Velvetleaf ([2]; 125 g ai/ha): 15
- Plant response rating, Velvetleaf ([2]; 250 g ai/ha): 40
- Plant response rating (scale of 0 to 100), Blackgrass [3, 16]: 30
- Plant response rating, Blackgrass ([3]; 62 g ai/ha): 60
- Plant response rating, Blackgrass ([3]; 125 g ai/ha): 70
- Plant response rating, Blackgrass ([3]; 250 g ai/ha): 90
- Plant response rating (scale of 0 to 100), Ragweed [4, 16]: 40
- Plant response rating, Ragweed ([4]; 62 g ai/ha): 70
- Plant response rating, Ragweed ([4]; 125 g ai/ha): 80
- Plant response rating, Ragweed ([4]; 250 g ai/ha): 80
- Plant response rating (scale of 0 to 100), Morningglory [5, 16]: 0
- Plant response rating, Morningglory ([5]; 62 g ai/ha): 25
- Plant response rating, Morningglory ([5]; 125 g ai/ha): 30
- Plant response rating, Morningglory ([5]; 250 g ai/ha): 50
- Plant response rating (scale of 0 to 100), Johnsongrass [6, 16]: 25
- Plant response rating, Johnsongrass ([6]; 62 g ai/ha): 75
- Plant response rating, Johnsongrass ([6]; 125 g ai/ha): 65
- Plant response rating, Johnsongrass ([6]; 250 g ai/ha): 85
- Plant response rating (scale of 0 to 100), Ryegrass, Italian [7, 16]: 0
- Plant response rating, Ryegrass, Italian ([7]; 62 g ai/ha): 5
- Plant response rating, Ryegrass, Italian ([7]; 125 g ai/ha): 20
- Plant response rating, Ryegrass, Italian ([7]; 250 g ai/ha): 40
- Plant response rating (scale of 0 to 100), Waterhemp [8, 16]: 75
- Plant response rating, Waterhemp ([8]; 62 g ai/ha): 80
- Plant response rating, Waterhemp ([8]; 125 g ai/ha): 85
- Plant response rating, Waterhemp ([8]; 250 g ai/ha): 85
- Plant response rating (scale of 0 to 100), Oilseed Rape [9, 16]: 25
- Plant response rating, Oilseed Rape ([9]; 62 g ai/ha): 50
- Plant response rating, Oilseed Rape ([9]; 125 g ai/ha): 90
- Plant response rating, Oilseed Rape ([9]; 250 g ai/ha): 90
- Plant response rating (scale of 0 to 100), Soybean (soybean (Glycine max); [16]): 20
- Plant response rating, Soybean (soybean (Glycine max); 62 g ai/ha): 85
- Plant response rating, Soybean (soybean (Glycine max); 125 g ai/ha): 5
- Plant response rating, Soybean (soybean (Glycine max); 250 g ai/ha): 60
- Plant response rating (scale of 0 to 100), Nutsedge, Yellow [10, 16]: 0
- Plant response rating, Nutsedge, Yellow ([10]; 62 g ai/ha): 0
- Plant response rating, Nutsedge, Yellow ([10]; 125 g ai/ha): 0
- Plant response rating, Nutsedge, Yellow ([10]; 250 g ai/ha): 25
- Plant response rating (scale of 0 to 100), Pigweed [11, 16]: 70
- Plant response rating, Pigweed ([11]; 62 g ai/ha): 70
- Plant response rating, Pigweed ([11]; 125 g ai/ha): 85
- Plant response rating, Pigweed ([11]; 250 g ai/ha): 85
- Plant response rating (scale of 0 to 100), Barnyardgrass [12, 16]: 85
- Plant response rating, Barnyardgrass ([12]; 62 g ai/ha): 90
- Plant response rating, Barnyardgrass ([12]; 125 g ai/ha): 95
- Plant response rating, Barnyardgrass ([12]; 250 g ai/ha): 95
- Plant response rating (scale of 0 to 100), Foxtail, Giant [13, 16]: 85
- Plant response rating, Foxtail, Giant ([13]; 62 g ai/ha): 90
- Plant response rating, Foxtail, Giant ([13]; 125 g ai/ha): 95
- Plant response rating, Foxtail, Giant ([13]; 250 g ai/ha): 95
- Plant response rating (scale of 0 to 100), Wheat [14, 16]: 0
- Plant response rating, Wheat ([14]; 62 g ai/ha): 0
- Plant response rating, Wheat ([14]; 125 g ai/ha): 10
- Plant response rating, Wheat ([14]; 250 g ai/ha): 65
- Plant response rating (scale of 0 to 100), Corn (corn (Zea mays); [16]): 0
- Plant response rating, Corn (corn (Zea mays); 62 g ai/ha): 70
- Plant response rating, Corn (corn (Zea mays); 125 g ai/ha): 75
- Plant response rating, Corn (corn (Zea mays); 250 g ai/ha): 85
- Plant response rating (scale of 0 to 100), Galium [15, 16]: 5
- Plant response rating, Galium ([15]; 62 g ai/ha): 5
- Plant response rating, Galium ([15]; 125 g ai/ha): 80
- Plant response rating, Galium ([15]; 250 g ai/ha): 80
